Source: patent US10239863B2, “Factor XIa inhibitors” (Merck Sharp & Dohme Corp., priority 2013, dated 2019)
Structures can show the parent of a compound that is named as a salt.

Target: T1, purified human Factor XIa (Homo sapiens, UniProt P03951)
T1 construct: Determinations were made using purified human Factor XIa; purchased Sekisui Diagnostics
Assay: Factor XIa Assay (hydrolysis of fluorogenic substrate Z-Gly-Pro-Arg-AFC)
Type: biochemical
Settings: purified human Factor XIa 40 pM; Z-Gly-Pro-Arg-AFC 100 μM; 50 mM HEPES pH 7.4; read-out: Factor XIa Inhibition (IC50 (nM))
Protocol: The effectiveness of compounds of the present invention as inhibitors of Coagulation Factor XIa can be determined using a relevant purified serine protease, and an appropriate synthetic substrate. The rate of hydrolysis of the chromogenic or fluorogenic substrate by the relevant serine protease was measured both in the absence and presence of compounds of the present invention. Assays were conducted at room temperature or at 37° C. […] A decrease in the rate of fluorescence change in the presence of inhibitor is indicative of enzyme inhibition. Such methods are known to one skilled in the art. […]
Factor XIa determinations were made in 50 mM HEPES buffer at pH 7.4 containing 150 mM NaCl, 5 mM CaCl2, and 0.1% PEG 8000 (polyethylene glycol; JT Baker or Fisher Scientific). Determinations were made using purified human Factor XIa at a final concentration of 40 pM (Sekisui Diagnostics) and the synthetic substrate, Z-Gly-Pro-Arg-AFC, TFA salt (Sigma #C0980) at a concentration of 100 μM.
Times required to achieve equilibration between enzyme and inhibitor were determined in control experiments. Initial velocities of product formation in the absence (Vo) or presence of inhibitor (Vi) were measured. Assuming competitive inhibition, and that unity is negligible compared Km/[S], [I]/e, and [I]/e (where [S], [I], and e respectively represent the total concentrations, of substrate, inhibitor and enzyme), the equilibrium constant (Ki) for dissociation of the inhibitor from the enzyme can be obtained from the dependence of Vo/Vi on [I] shown in the following equation.

T1 sequence (P03951 388-625 limits assumed): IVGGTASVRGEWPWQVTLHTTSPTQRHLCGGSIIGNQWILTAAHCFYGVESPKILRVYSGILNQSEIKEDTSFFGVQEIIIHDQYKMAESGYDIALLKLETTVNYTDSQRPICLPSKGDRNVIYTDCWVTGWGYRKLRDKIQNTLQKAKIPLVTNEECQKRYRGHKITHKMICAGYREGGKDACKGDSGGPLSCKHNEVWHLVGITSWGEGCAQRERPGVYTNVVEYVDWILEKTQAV
T1 sequence (P03951 19-387 partner limits assumed): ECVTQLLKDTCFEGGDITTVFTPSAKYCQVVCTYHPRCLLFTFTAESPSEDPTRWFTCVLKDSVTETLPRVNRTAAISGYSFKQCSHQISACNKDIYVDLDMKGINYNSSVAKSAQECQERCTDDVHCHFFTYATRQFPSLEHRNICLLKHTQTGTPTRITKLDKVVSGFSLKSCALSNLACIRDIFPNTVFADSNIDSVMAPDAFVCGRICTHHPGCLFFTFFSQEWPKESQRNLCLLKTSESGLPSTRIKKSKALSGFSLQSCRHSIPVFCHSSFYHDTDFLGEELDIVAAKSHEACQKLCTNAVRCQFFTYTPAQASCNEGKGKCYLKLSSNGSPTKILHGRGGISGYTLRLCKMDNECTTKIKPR

IC50	Structure (SMILES)
2.2 nM	NC1CCN(C2CC(C3CC3)C(C(=O)Nc3ccc(C(=O)O)cc3)N(C(=O)/C=C/c3cc(Cl)ccc3-n3cnnn3)C2)CC1 (centres unmarked) [Example 4, 4-{[(4-amino-1′-{(2E)-3-[5-chloro-2-(1H-tetrazol-1-yl)phenyl]prop-2-enoyl}-5′-cyclopropyl-1,3′-bipiperidin-6′-yl)carbonyl]amino}benzoic acid]
0.4 nM	NC1CCN([C@@H]2C[C@H](c3ccccc3)[C@H](C(=O)Nc3ccc(C(=O)O)cc3)N(C(=O)/C=C/c3cc(Cl)ccc3-n3cnnn3)C2)CC1 [Example 7, 4-({[(3′R,5′R,6′R)-4-amino-1′-{(2E)-3-[5-chloro-2-(1H-tetrazol-1-yl)phenyl]prop-2-enoyl}-5′-phenyl-1,3′-bipiperidin-6′-yl]carbonyl}amino)benzoic acid]
306 nM	O=C(O)c1ccc(NC(=O)[C@H]2[C@@H](c3ccccc3)C[C@@H](OC3CCNCC3)CN2C(=O)/C=C/c2cc(Cl)ccc2-n2cnnn2)cc1 [Example 10, 4-((2R,3R,5R)-1-((E)-3-(5-chloro-2-(1H-tetrazol-1-yl)phenyl)acryloyl)-3-phenyl-5-(piperidin-4-yloxy)piperidine-2-carboxamido)benzoic acid]
105 nM	CC1CC(N2CCC(N)CC2)CN(C(=O)/C=C/c2cc(Cl)ccc2-n2cnnn2)C1C(=O)Nc1ccc(C(=O)O)cc1 (centres unmarked) [Example 5, 4-{[(4-amino-1′-{(2E)-3-[5-chloro-2-(1H-tetrazol-1-yl)phenyl]prop-2-enoyl}-5′-methyl-1,3′-bipiperidin-6′-yl)carbonyl]amino}benzoic acid]
27.2 nM	CC(C)C1CC(N2CCC(N)CC2)CN(C(=O)/C=C/c2cc(Cl)ccc2-n2cnnn2)C1C(=O)Nc1ccc(C(=O)O)cc1 (centres unmarked) [Example 3, 4-({[4-amino-1′-{(2E)-3-[5-chloro-2-(1H-tetrazol-1-yl)phenyl]prop-2-enoyl}-5′-(1-methylethyl)-1,3′-bipiperidin-6′-yl]carbonyl}amino)benzoic acid]
4.7 nM	O=C(O)c1ccc(NC(=O)[C@@H]2[C@H](c3ccccc3)C[C@H](OC3CCNCC3)CN2C(=O)/C=C/c2cc(Cl)ccc2-n2cnnn2)cc1 (racemic) [Example 8, 4-(1-((E)-3-(5-Chloro-2-(1H-tetrazol-1-yl)phenyl)acryloyl)-3-phenyl-5-(piperidin-4-yloxy)piperidine-2-carboxamido)benzoic acid]
2.5 nM	O=C(O)c1ccc(NC(=O)[C@@H]2[C@H](c3ccccc3)C[C@H](OC3CCNCC3)CN2C(=O)/C=C/c2cc(Cl)ccc2-n2cnnn2)cc1 (single isomer, unassigned) [Example 9]
11.4 nM	O=C(O)c1ccc(NC(=O)C2C(c3ccccc3)CC(N3CCNCC3)CN2C(=O)/C=C/c2cc(Cl)ccc2-n2cnnn2)cc1 (centres unmarked) [Example 2, 4-{[(1-{(2E)-3-[5-chloro-2-(1H-tetrazol-1-yl)phenyl]prop-2-enoyl}-3-phenyl-5-piperazin-1-ylpiperidin-2-yl)carbonyl]amino}benzoic acid]
155 nM	O=C(O)c1ccc(NC(=O)[C@@H]2[C@H](OC3CCNCC3)C[C@H](c3ccccc3)CN2C(=O)/C=C/c2cc(Cl)ccc2-n2cnnn2)cc1 (racemic) [Example 12, 4-(1-((E)-3-(5-chloro-2-(1H-tetrazol-1-yl)phenyl)acryloyl)-5-phenyl-3-(piperidin-4-yloxy)piperidine-2-carboxamido)benzoic acid]
640 nM	O=C(O)c1ccc(NC(=O)[C@@H]2[C@H](c3ccccc3)C[C@H](C3CCNCC3)CN2C(=O)/C=C/c2cc(Cl)ccc2-n2cnnn2)cc1 (single isomer, unassigned) [Example 23, trifluoroacetic acid salt]

The next lines start with the compound.

Structure (SMILES)	IC50
COC(=O)Nc1ccc(-c2c[nH]c([C@@H]3[C@H](C4CC4)C[C@H](C4CCN(S(C)(=O)=O)CC4)CN3C(=O)/C=C/c3cc(Cl)ccc3-n3cnnn3)n2)cc1 (single isomer, unassigned) [Example 28]	652 nM
C[C@@H]1C[C@H](C2CCNCC2)CN(C(=O)/C=C/c2cc(Cl)ccc2-n2cnnn2)[C@@H]1C(=O)Nc1ccc(C(=O)O)cc1 [Example 24, 4-((3R,5R,6S)-1-((E)-3-(5-chloro-2-(1H-tetrazol-1-yl)phenyl)acryloyl)-5-methyl-[3,4′-bipiperidine]-6-carboxamido)benzoic acid]	579 nM
COC(=O)Nc1ccc(-c2cnc(C3C(c4ccc(F)cc4)CC(N4CCC(N)CC4)CN3C(=O)/C=C/c3c(C(F)(F)F)ccc(Cl)c3F)[nH]2)cc1 (centres unmarked) [Example 19, methyl (4-{2-[4-amino-1′-{(2E)-3-[3-chloro-2-fluoro-6-(trifluorometh-yl)phenyl]prop-2-enoyl}-5′-(4-fluorophenyl)-1,3′-bipiperidin-6′-yl]-1H-imidazol-5-yl}phenyl)carbamate]	67.8 nM
O=C(Nc1ccc2[nH]ncc2c1)[C@@H]1[C@H](c2ccc(F)cc2)C[C@H](N2CCNCC2)CN1C(=O)/C=C/c1cc(Cl)ccc1-n1cnnn1 [Example 31, (2S,3S,5S)-1-{(2E)-3-[5-chloro-2-(1H-tetrazol-1-yl)phenyl]prop-2-enoyl}-3-(4-fluorophenyl)-N-1H-indazol-5-yl-5-piperazin-1-ylpiperidine-2-carboxamide]	40.9 nM
COC(=O)Nc1ccc(-c2c[nH]c(C3C(c4ccc(F)cc4)CC(N4CCC(N)CC4)CN3C(=O)/C=C/c3cc(Cl)ccc3-n3cnnn3)n2)cc1 (single isomer, unassigned) [Example 13, Methyl (4-{2-[4-amino-1′-{(2E)-3-[5-chloro-2-(1H-tetrazol-1-yl)phenyl]prop-2-enoyl}-5′-(4-fluorophenyl)-1,3′-bipiperidin-6′-yl]-1H-imidazol-4-yl}phenyl)-carbamate]	1.7 nM
O=C(Nc1ccc2[nH]ncc2c1)[C@H]1[C@@H](c2ccc(F)cc2)C[C@@H](N2CCNCC2)CN1C(=O)/C=C/c1cc(Cl)ccc1-n1cnnn1 [Example 30, (2R,3R,5R)-1-{(2E)-3-[5-chloro-2-(1H-tetrazol-1-yl)phenyl]prop-2-enoyl}-3-(4-fluorophenyl)-N-1H-indazol-5-yl-5-piperazin-1-ylpiperidine-2-carboxamide]	767 nM
O=C(Nc1ccc2[nH]ncc2c1)[C@@H]1[C@H](c2ccc(F)cc2)C[C@H](N2CCOCC2)CN1C(=O)/C=C/c1cc(Cl)ccc1-n1cnnn1 [Example 29, (2S,3S,5S)-1′-{(2E)-3-[5-Chloro-2-(1H-tetrazol-1-yl)phenyl]prop-2-enoyl}-3-(4-fluorophenyl)-N-1H-indazol-5-yl-5-morpholin-4-ylpiperidine-2-carboxamide]	81.1 nM
COC(=O)Nc1ccc(-c2cnc(C3C(c4ccc(F)cc4)CC(N4CCC(N)CC4)CN3C(=O)/C=C/c3c(C(F)(F)F)ccc(Cl)c3F)[nH]2)cc1 (centres unmarked) [Example 20, methyl (4-{2-[4-amino-1′-{(2E)-3-[3-chloro-2-fluoro-6-(trifluoromethyl)phenyl]prop-2-enoyl}-5′-(4-fluorophenyl)-1,3′-bipiperidin-6′-yl]-1H-imidazol-5-yl}phenyl)carbamate]	128 nM
C[C@@H]1C[C@H](C2CCNCC2)CN(C(=O)c2ccc(CN)c(C3CC3)c2)[C@@H]1C(=O)Nc1ccc(C(=O)O)cc1 [Example 25, 4-((3R,5R,6S)-1-(4-(aminomethyl)-3-cyclopropylbenzoyl)-5-methy-1-[3,4′-bipiperidine]-6-carboxamido) benzoic acid]	519 nM
N#Cc1ccc(-c2cnc(C3C(c4ccc(F)cc4)CC(N4CCC(N)CC4)CN3C(=O)/C=C/c3cc(Cl)ccc3-n3cnnn3)[nH]2)cc1 (centres unmarked) [Example 18, 4-{2-[4-amino-1′-{(2E)-3-[5-chloro-2-(1H-tetrazol-1-yl)phenyl]prop-2-enoyl}-5′-(4-fluorophenyl)-1,3′-bipiperidin-6′-yl]-1H-imidazol-5-yl}benzonitrile]	16.5 nM
COC(=O)Nc1ccc(-c2c[nH]c([C@@H]3[C@H](C4CC4)C[C@H](N4CCC(N)CC4)CN3C(=O)/C=C/c3cc(Cl)ccc3-n3cnnn3)n2)cc1 [Example 22, methyl (4-{2-[(3′S,5′S,6′S)-4-amino-1′-{(2E)-3-[5-chloro-2-(1H-tetrazol-1-yl)phenyl]prop-2-enoyl}-5′-cyclopropyl-1,3′-bipiperidin-6′-yl]-1H-imidazol-4-yl}phenyl)carbamate]	671 nM
NC1CCN(C2CC(c3ccc(F)cc3)C(c3nc(-c4cccnc4)c[nH]3)N(C(=O)/C=C/c3cc(Cl)ccc3-n3cnnn3)C2)CC1 (centres unmarked) [Example 14, 1′-{(2E)-3-[5-chloro-2-(1H-tetrazol-1-yl)phenyl]prop-2-enoyl}-5′-(4-fluorophenyl)-6′-(4-pyridin-3-yl-1H-imidazol-2-yl)-1,3′-bipiperidin-4-amine]	139 nM
NC1CCN([C@H]2C[C@@H](c3ccc(F)cc3)[C@@H](c3nc(-c4cccnc4)c[nH]3)N(C(=O)/C=C/c3cc(Cl)ccc3-n3cnnn3)C2)CC1 [Example 15, (3′S,5′S,6′S)-1′-{(2E)-3-[5-chloro-2-(1H-tetrazol-1-yl)phenyl]prop-2-enoyl}-5′-(4-fluorophenyl)-6′-(4-pyridin-3-yl-1H-imidazol-2-yl)-1,3′-bipiperidin-4-amine]	82.1 nM
